Tests used:
[1] = Selectivity ratio of Ki for bovine recombinant eNOS to Ki for rat recombinant nNOS
[2] = Selectivity ratio of Ki for mouse recombinant iNOS to Ki for rat recombinant nNOS
[3] = biological target: Nitric oxide synthase 1 (Rattus norvegicus, UniProt P29476)
[4] = biological target: T1, Nitric oxide synthase, inducible (Mus musculus, UniProt P29477)
T1 sequence (P29477 whole entry): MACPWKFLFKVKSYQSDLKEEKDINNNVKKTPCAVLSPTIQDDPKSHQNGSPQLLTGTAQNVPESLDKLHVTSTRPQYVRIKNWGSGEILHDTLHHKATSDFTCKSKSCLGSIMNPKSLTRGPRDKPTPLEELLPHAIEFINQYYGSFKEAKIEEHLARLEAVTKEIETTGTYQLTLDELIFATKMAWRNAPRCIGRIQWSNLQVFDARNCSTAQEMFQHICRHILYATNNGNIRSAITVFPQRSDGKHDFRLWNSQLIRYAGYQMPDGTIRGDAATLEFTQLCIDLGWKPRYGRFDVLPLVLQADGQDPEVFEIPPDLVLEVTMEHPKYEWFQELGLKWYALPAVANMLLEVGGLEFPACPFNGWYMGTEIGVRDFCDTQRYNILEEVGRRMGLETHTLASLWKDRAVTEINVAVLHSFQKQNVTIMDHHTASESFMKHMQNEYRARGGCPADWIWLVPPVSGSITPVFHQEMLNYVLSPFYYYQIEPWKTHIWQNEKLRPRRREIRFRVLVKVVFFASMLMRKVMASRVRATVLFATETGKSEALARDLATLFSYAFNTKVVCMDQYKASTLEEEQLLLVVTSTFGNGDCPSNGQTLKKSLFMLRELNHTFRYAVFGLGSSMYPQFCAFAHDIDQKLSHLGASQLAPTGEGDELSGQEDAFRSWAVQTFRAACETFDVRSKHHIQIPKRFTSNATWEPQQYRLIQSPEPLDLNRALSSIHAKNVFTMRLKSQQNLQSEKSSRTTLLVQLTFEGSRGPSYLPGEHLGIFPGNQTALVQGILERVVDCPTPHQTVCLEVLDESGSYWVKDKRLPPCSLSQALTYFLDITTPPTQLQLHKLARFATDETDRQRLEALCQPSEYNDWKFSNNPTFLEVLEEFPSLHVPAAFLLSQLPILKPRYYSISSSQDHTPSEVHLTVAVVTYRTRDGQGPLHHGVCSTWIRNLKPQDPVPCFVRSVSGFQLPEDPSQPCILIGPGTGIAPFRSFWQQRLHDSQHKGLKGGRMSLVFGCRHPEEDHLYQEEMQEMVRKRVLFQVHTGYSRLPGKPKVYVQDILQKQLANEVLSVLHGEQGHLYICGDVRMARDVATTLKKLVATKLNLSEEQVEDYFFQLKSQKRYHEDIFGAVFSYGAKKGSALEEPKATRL

[5] = biological target: T2, Nitric oxide synthase 3 (Bos taurus, UniProt P29473)
T2 sequence (P29473 whole entry): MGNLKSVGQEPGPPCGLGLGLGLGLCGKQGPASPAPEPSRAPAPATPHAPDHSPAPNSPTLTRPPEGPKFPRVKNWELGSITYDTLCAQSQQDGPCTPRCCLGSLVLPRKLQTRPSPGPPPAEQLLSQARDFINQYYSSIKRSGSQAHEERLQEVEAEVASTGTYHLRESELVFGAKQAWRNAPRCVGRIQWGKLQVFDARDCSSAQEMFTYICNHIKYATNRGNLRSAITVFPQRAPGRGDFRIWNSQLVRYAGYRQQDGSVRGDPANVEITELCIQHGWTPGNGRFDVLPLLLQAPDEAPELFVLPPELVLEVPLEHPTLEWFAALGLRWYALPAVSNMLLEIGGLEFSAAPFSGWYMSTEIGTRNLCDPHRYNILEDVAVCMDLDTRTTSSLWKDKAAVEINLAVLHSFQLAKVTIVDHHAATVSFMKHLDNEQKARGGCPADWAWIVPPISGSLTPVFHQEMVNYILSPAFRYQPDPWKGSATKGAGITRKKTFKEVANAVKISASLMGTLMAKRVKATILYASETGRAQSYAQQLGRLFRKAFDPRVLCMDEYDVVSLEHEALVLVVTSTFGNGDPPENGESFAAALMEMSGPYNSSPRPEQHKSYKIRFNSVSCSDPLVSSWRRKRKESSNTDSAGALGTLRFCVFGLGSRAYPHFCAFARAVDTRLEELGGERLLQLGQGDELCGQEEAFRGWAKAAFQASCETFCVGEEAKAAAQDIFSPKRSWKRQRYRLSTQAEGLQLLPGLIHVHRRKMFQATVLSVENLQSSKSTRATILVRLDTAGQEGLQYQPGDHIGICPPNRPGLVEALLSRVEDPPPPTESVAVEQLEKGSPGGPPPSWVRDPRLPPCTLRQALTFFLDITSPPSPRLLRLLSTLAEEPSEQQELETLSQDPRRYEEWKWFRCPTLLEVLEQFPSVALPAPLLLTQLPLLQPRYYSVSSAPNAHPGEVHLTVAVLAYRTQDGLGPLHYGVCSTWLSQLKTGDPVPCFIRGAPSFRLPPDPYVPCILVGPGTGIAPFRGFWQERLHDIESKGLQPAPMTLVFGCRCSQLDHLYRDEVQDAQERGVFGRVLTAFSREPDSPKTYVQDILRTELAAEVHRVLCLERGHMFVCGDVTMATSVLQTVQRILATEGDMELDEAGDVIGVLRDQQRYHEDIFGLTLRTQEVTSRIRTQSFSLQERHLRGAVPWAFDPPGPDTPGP

[6] = test system: Caco-2; conditions: human, caco-2, 2 h, 10 µM

Chain of Nitric oxide synthase 1 (P29476 whole entry): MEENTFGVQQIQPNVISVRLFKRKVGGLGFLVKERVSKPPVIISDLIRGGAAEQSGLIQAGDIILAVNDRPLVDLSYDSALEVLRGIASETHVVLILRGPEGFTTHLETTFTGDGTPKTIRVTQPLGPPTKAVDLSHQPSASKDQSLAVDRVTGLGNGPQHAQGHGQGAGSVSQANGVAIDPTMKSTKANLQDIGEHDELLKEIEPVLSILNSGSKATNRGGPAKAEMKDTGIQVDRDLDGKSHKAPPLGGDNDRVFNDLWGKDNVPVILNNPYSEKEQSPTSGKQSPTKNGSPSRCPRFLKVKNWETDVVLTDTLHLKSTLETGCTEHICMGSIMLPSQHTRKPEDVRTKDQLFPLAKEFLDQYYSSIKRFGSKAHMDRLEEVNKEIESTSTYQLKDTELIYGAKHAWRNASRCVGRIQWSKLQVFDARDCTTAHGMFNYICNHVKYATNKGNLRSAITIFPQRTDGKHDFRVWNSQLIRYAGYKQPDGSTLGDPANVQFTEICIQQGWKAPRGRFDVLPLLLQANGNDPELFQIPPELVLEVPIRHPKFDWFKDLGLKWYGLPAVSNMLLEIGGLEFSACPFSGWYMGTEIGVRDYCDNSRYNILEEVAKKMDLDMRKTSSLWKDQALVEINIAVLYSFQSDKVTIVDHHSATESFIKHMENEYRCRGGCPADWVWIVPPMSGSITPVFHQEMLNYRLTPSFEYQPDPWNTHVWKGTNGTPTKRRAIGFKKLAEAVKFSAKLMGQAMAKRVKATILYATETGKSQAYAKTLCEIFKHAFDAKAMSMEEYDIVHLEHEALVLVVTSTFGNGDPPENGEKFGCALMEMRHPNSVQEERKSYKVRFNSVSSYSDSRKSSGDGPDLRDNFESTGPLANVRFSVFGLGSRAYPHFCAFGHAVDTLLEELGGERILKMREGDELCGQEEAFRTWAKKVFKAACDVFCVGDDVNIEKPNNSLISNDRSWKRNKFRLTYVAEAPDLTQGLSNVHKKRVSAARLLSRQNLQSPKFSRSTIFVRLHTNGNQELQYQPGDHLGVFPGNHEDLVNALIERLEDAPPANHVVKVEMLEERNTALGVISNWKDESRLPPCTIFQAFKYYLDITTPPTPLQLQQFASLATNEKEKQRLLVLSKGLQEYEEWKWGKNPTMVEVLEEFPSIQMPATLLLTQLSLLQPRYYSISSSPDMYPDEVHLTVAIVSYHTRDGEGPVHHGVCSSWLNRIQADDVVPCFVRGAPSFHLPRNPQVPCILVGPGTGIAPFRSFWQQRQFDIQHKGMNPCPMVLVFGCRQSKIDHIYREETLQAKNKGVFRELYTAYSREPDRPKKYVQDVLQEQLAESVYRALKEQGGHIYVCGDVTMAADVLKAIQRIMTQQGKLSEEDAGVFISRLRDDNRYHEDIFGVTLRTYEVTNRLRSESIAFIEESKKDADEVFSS

Ratio Ki [1]	Ratio Ki [2]	Ki [3] [µM]	SMILES	further results
62	538	0.06	Nc1ccc2ccc(CNCCCc3cccc(F)c3)cc2n1	Ki [4]: 32.3 µM; Ki [5]: 3.69 µM
30	97	–	Nc1ccc2ccc(CCNCc3cccc(F)c3)cc2n1	–
47	91	–	Nc1ccc2ccc(CCNCCc3ccc(Cl)cc3)cc2n1	–
37	280	–	Nc1ccc2ccc(CCNCCc3ccc(F)cc3)cc2n1	–
–	–	–	Cl.Cl.Cl.N=C(Nc1ccc(CCNCc2cccc(Cl)c2)cc1)c1cccs1	IC50 [3]: 0.035 µM; Drug recovery [6]: 78%
–	–	> 5.7	Nc1ccc2cc(CCNCc3cccc(F)c3)ccc2n1	–
–	–	> 5.7	Nc1ccc2cc(CCNCCc3cccc(F)c3)ccc2n1	–
–	–	4.37	Nc1ccc2cc(CCNCCCc3cccc(F)c3)ccc2n1	–

SMILES	Ratio Ki [1]	Ratio Ki [2]	Ki [3] [µM]	further results
Nc1ccc2cc(CNCCc3cccc(F)c3)ccc2n1	–	–	> 5.7	–
Nc1ccc2ccc(CNCCc3cccc(F)c3)cc2n1	6.2	124	–	–
